Source: patent US11186576B2, “Pyrazolo[1,5-A][1,3,5]triazine and pyrazolo[1,5-A]pyrimidine derivatives as CDK inhibitors” (Aurigene Discovery Technologies Limited, priority 2015, dated 2021)

What was measured:
CDK7/CycH/MNAT1 = CDK7/CycH/MNAT1 (Homo sapiens (Human), UniProt P50613); experiment: Biochemical assay for CDK7 (TR-FRET kinase assay); conditions: 60 min pre-incubation, 1 mM ATP; for inhibition at 10 µM: 10 μM compound, read-out: % inhibition @ 10 μM; for IC50: read-out: IC50
Method in brief: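 CDK7/CycH/MNAT1 (5 nM) was preincubated with compound for 60 min at room temperature, then reacted for 60 min with 100 nM ULight-MBP and 1 mM ATP in 1% DMSO. Irreversibility was probed with 20, 60 and 180 min preincubations.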

[1] = test system: RNA polymerase II CTD phosphorylation (MDA-MB-231/NCI-H358 cells); experiment: Inhibition of RNA polymerase II CTD phosphorylation in cell western assay; type: cell-based; conditions: 4 hours incubation, phospho RNA Pol II Ser-5 or Ser-2
Experimental: 25000 cells (MDA-MB-231/NCI-H358) were seeded in 96 well black clear bottom plate incubated for overnight before addition of selected compound. 3 fold dilutions of selected compound diluted in DMSO starting from 10 μM, added to cells and incubated for 4 hours at 37° C., 5% CO2 incubator. Cells were washed once with 100 μl of phosphate buffered saline (sigma #P3813), then fixed with 100 μl/well of 4% Para formaldehyde for 60 min at room temperature, in dark. The cells were washed 3 times with 100 μl of wash buffer (PBS with 0.1% Triton-X-100), later blocked for 2 hours at room temperature in blocking buffer (5% BSA in PBST). Cells were stained overnight at 4° C. with Phospho RNA Pol II (S5) (Millipore #04-1572, Abcam #5131) or Phospho RNA Pol II (Ser-2), antibody (Bethyl labs #A300-654-A) in blocking buffer. Post incubation cells were washed with Delifia wash buffer (Perkin Elmer #4010-0010). Cells were treated with LANCE secondary antibodies (LANCE® Eu-W1024 perkin elmer #AD-0076 for phospho Ser-5 CTD RNA pol-II and Delfia Eu-N1 anti rabbit IgG Perkin elmer #AD0106 for phospho Ser-2 CTD RNA pol-II) for 2 hours in assay buffer (Perkin Elmer #1244-111), Cells were washed 3 times with Delfia wash buffer post incubation, Enhancement solution (Perkin Elmer #1244-105) added and incubated for 20 mins. Europium readings were taken in Victor-3 instrument. Cell normalization was done using Hoechst dye (0.5 μg/ml).
Selected compounds were screened in the above mentioned assay procedure. The EC50 values are summarised in the below table; wherein group “A” refers to an EC50 value of less than or equal to 1 μM, group “B” refers to EC50 value in range of 1 to 10 μM and group “C” refers to EC50 value of greater than 10 μM.

Sequence of CDK7/CycH/MNAT1 (P50613 whole entry): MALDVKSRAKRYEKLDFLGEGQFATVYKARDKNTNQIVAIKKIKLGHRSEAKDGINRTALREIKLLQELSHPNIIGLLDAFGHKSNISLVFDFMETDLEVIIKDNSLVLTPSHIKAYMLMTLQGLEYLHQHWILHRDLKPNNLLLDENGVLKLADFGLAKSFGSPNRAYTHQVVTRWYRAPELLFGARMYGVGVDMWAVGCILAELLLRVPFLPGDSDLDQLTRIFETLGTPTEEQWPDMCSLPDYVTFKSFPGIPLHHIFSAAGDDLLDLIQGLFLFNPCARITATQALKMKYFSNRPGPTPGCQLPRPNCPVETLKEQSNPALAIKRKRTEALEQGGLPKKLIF
Sequence of CDK7/CycH/MNAT1 (P51946 whole entry partner): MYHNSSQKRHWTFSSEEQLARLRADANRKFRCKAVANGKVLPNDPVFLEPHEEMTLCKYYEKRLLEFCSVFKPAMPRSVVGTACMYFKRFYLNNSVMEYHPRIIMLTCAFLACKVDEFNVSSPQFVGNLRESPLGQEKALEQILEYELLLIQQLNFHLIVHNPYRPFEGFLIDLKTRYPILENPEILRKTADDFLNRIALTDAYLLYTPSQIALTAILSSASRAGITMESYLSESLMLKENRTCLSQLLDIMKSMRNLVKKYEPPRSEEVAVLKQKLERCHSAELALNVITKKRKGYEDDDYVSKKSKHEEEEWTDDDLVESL
Sequence of CDK7/CycH/MNAT1 (P51948 whole entry partner): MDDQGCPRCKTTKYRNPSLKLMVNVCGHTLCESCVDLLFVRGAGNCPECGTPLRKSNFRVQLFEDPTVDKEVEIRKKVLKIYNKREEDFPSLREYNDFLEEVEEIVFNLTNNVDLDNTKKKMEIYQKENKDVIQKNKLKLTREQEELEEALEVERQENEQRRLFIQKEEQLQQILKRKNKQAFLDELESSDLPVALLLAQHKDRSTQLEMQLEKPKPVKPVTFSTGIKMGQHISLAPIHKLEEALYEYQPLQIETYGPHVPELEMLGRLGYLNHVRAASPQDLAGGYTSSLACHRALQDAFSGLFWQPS

In the case of `C=CC(=O)N[C@H]1CC[C@@H](C(=O)Nc2cccc(CNc3nc(OC4CCN(C)CC4)nc4c(C(C)C)cnn34)c2)CC1` [Compound 115, (1,4-cis)-4-acrylamido-N-(3-(((8-isopropyl-2-((1-methylpiperidin-4-yl)oxy)pyrazolo[1,5-a][1,3,5]triazin-4-yl)amino)methyl)phenyl)cyclohexane-1-carboxamide], the inhibition at 10 µM (CDK7/CycH/MNAT1) is reported as 94%, the IC50 (CDK7/CycH/MNAT1) is reported as less than 300 nM and the EC50 [1] is reported as no more than 1000 nM.
`C=CC(=O)N1CCCC(C(=O)Nc2cccc(CNc3nc(OC4CCN(C)CC4)nc4c(C(C)C)cnn34)c2)C1` (centres unmarked) [Compound 116, 1-acryloyl-N-(3-(((8-isopropyl-2-((1-methylpiperidin-4-yl)oxy)pyrazolo[1,5-a][1,3,5]triazin-4-yl)amino)methyl)phenyl)piperidine-3-carboxamide] gave an inhibition at 10 µM (CDK7/CycH/MNAT1) of 92%, an IC50 (CDK7/CycH/MNAT1) of less than 300 nM and an EC50 [1] of 1000 to 10000 nM.
With `C=CC(=O)N1CCCC(C(=O)Nc2cccc(CNc3nc(NC4CCOCC4)nc4c(C(C)C)cnn34)c2)C1` (centres unmarked) [Compound 1, 1-acryloyl-N-(3-(((8-isopropyl-2-((tetrahydro-2H-pyran-4-yl)amino)pyrazolo[1,5-a][1,3,5]triazin-4-yl)amino)methyl)phenyl)piperidine-3-carboxamide] the inhibition at 10 µM (CDK7/CycH/MNAT1) was 88%, the IC50 (CDK7/CycH/MNAT1) was 300 to 1000 nM and the EC50 [1] was no more than 1000 nM.
`C=CC(=O)N1CCC(C(=O)Nc2ccc(F)c(CNc3nc(NC4CCOCC4)nc4c(C(C)C)cnn34)c2)C1` (centres unmarked) [Compound 32, 1-acryloyl-N-(4-fluoro-3-(((8-isopropyl-2-((tetrahydro-2H-pyran-4-yl)amino)pyrazolo[1,5-a][1,3,5]triazin-4-yl)amino)methyl)phenyl)pyrrolidine-3-carboxamide] gave an inhibition at 10 µM (CDK7/CycH/MNAT1) of 91%, an IC50 (CDK7/CycH/MNAT1) of less than 300 nM and an EC50 [1] of 1000 to 10000 nM.
For `C=CC(=O)Nc1cn(C)nc1C(=O)Nc1cccc(CNc2nc(NC3CCOCC3)nc3c(C(C)C)cnn23)c1` [Compound 85, 4-acrylamido-N-(3-(((8-isopropyl-2-((tetrahydro-2H-pyran-4-yl)amino)pyrazolo[1,5-a][1,3,5]triazin-4-yl)amino)methyl)phenyl)-1-methyl-1H-pyrazole-3-carboxamide], the inhibition at 10 µM (CDK7/CycH/MNAT1) was 99%, the IC50 (CDK7/CycH/MNAT1) was less than 300 nM and the EC50 [1] was 1000 to 10000 nM.
Compound `C=CC(=O)N1CCC(C(=O)Nc2cccc(CNc3nc(OC4CCN(C)CC4)nc4c(C(C)C)cnn34)c2)C1` (single isomer, unassigned) [Compound 109, 1-acryloyl-N-(3-(((8-isopropyl-2-((1-methylpiperidin-4-yl)oxy)pyrazolo[1,5-a][1,3,5]triazin-4-yl)amino)methyl)phenyl)pyrrolidine-3-carboxamide] has an inhibition at 10 µM (CDK7/CycH/MNAT1) of 98%, an IC50 (CDK7/CycH/MNAT1) of less than 300 nM and an EC50 [1] of 1000 to 10000 nM.
In the case of `C=CC(=O)N1CCCC(NC(=O)c2cccc(Nc3nc(OC4CCN(C)CC4)nc4c(C(C)C)cnn34)c2)C1` (centres unmarked) [Compound 129, N-(1-acryloylpiperidin-3-yl)-3-((8-isopropyl-2-((1-methylpiperidin-4-yl)oxy)pyrazolo[1,5-a][1,3,5]triazin-4-yl)amino)benzamide], the inhibition at 10 µM (CDK7/CycH/MNAT1) is reported as 94%, the IC50 (CDK7/CycH/MNAT1) is reported as less than 300 nM and the EC50 [1] is reported as 1000 to 10000 nM.
Compound `C=CC(=O)N1CCC(C(=O)Nc2cccc(CNc3nc(NC4CCOCC4)nc4c(C(C)C)cnn34)c2)C1` (centres unmarked) [Compound 4, 1-acryloyl-N-(3-(((8-isopropyl-2-((tetrahydro-2H-pyran-4-yl)amino)pyrazolo[1,5-a][1,3,5]triazin-4-yl)amino)methyl)phenyl)pyrrolidine-3-carboxamide] has an inhibition at 10 µM (CDK7/CycH/MNAT1) of 93%, an IC50 (CDK7/CycH/MNAT1) of less than 300 nM and an EC50 [1] of no more than 1000 nM.
With `CC(C)c1cnn2c(NCc3cccc(NC(=O)C4CCCN(C(=O)/C=C/CN(C)C)C4)c3)nc(OC3CCN(C)CC3)nc12` (centres unmarked) [Compound 122, (E)-1-(4-(dimethylamino)but-2-enoyl)-N-(3-(((8-isopropyl-2-((1-methyl-piperidin-4-yl)oxy)pyrazolo[1,5-a][1,3,5]triazin-4-yl)amino)methyl)phenyl)-piperidine-3-carboxamide] the IC50 (CDK7/CycH/MNAT1) was less than 300 nM and the EC50 [1] was greater than 10000 nM.
Compound `C=CC(=O)NC1CCCC(C(=O)Nc2cccc(CNc3nc(OC4CCN(C)CC4)nc4c(C(C)C)cnn34)c2)C1` (centres unmarked) [Compound 114, 3-acrylamido-N-(3-(((8-isopropyl-2-((1-methylpiperidin-4-yl)oxy)pyrazolo[1,5-a][1,3,5]triazin-4-yl)amino)methyl)phenyl)cyclohexane-1-carboxamide] has an inhibition at 10 µM (CDK7/CycH/MNAT1) of 97%, an IC50 (CDK7/CycH/MNAT1) of less than 300 nM and an EC50 [1] of 1000 to 10000 nM.
Work on `C=CC(=O)N[C@H]1CC[C@H](C(=O)Nc2cccc(CNc3nc(OC4CCN(C)CC4)nc4c(C(C)C)cnn34)c2)CC1` [Compound 91, (1,4-trans)-4-acrylamido-N-(3-(((8-isoproprayl-2-((1-methylpiperidin-4-yl)oxy)pyrazolo[1,5-a][1,3,5]triazin-4-yl)amino)methyl)phenyl)cyclohexane-1-carboxamide] yielded an inhibition at 10 µM (CDK7/CycH/MNAT1) of 94%, an IC50 (CDK7/CycH/MNAT1) of less than 300 nM and an EC50 [1] greater than 10000 nM.
`C=CC(=O)N1CCCCC1C(=O)Nc1cccc(CNc2nc(NC3CCOCC3)nc3c(C(C)C)cnn23)c1` (centres unmarked) [Compound 21, 1-acryloyl-N-(3-(((8-isopropyl-2-((tetrahydro-2H-pyran-4-yl)amino)pyrazolo[1,5-a][1,3,5]triazin-4-yl)amino)methyl)phenyl)piperidine-2-carboxamide] was tested, and the inhibition at 10 µM (CDK7/CycH/MNAT1) was 96%, the IC50 (CDK7/CycH/MNAT1) was less than 300 nM and the EC50 [1] was no more than 1000 nM.
With `C=CC(=O)N1CCCC(C(=O)Nc2cc(CNc3nc(OC4CCN(C)CC4)nc4c(C(C)C)cnn34)ccc2F)C1` (centres unmarked) [Compound 117, 1-acryloyl-N-(2-fluoro-5-(((8-isopropyl-2-((1-methylpiperidin-4-yl)oxy)pyrazolo[1,5-a][1,3,5]triazin-4-yl)amino)methyl)phenyl)piperidine-3-carboxamide] the inhibition at 10 µM (CDK7/CycH/MNAT1) was 95%, the IC50 (CDK7/CycH/MNAT1) was less than 300 nM and the EC50 [1] was 1000 to 10000 nM.
In the case of `C=CC(=O)N1CCC(C(=O)Nc2cccc(CNc3nc(OC4CCOCC4)nc4c(C(C)C)cnn34)c2)C1` (centres unmarked) [Compound 95, 1-acryloyl-N-(3-(((8-isopropyl-2-((tetrahydro-2H-pyran-4-yl)oxy)pyrazolo[1,5-a][1,3,5]triazin-4-yl)amino)methyl)phenyl)pyrrolidine-3-carboxamide], the inhibition at 10 µM (CDK7/CycH/MNAT1) is reported as 93%, the IC50 (CDK7/CycH/MNAT1) is reported as less than 300 nM and the EC50 [1] is reported as no more than 1000 nM.
For `C=CC(=O)N1CCCC(C(=O)Nc2cccc(C(C)Nc3nc(OC4CCN(C)CC4)nc4c(C(C)C)cnn34)c2)C1` (centres unmarked) [Compound 119, 1-acryloyl-N-(3-(1-((8-isopropyl-2-((1-methylpiperidin-4-yl)oxy)pyrazolo[1,5-a][1,3,5]triazin-4-yl)amino)ethyl)phenyl)piperidine-3-carboxamide], the inhibition at 10 µM (CDK7/CycH/MNAT1) was 99%, the IC50 (CDK7/CycH/MNAT1) was less than 300 nM and the EC50 [1] was greater than 10000 nM.
Work on `C=CS(=O)(=O)N1CCCCC1C(=O)Nc1cccc(CNc2nc(NC3CCOCC3)nc3c(C(C)C)cnn23)c1` (centres unmarked) [Compound 78, N-(3-(((8-isopropyl-2-((tetrahydro-2H-pyran-4-yl)amino)pyrazolo [1,5-a][1,3,5]triazin-4-yl)amino)methyl)phenyl)-1-(vinylsulfonyl)piperidine-2-carboxamide] yielded an inhibition at 10 µM (CDK7/CycH/MNAT1) of 100%, an IC50 (CDK7/CycH/MNAT1) of less than 300 nM and an EC50 [1] of no more than 1000 nM.
`CC(C)c1cnn2c(NCc3ccc(F)c(NC(=O)[C@H]4CC[C@@H](NC(=O)/C=C/CN(C)C)CC4)c3)nc(OC3CCN(C)CC3)nc12` [Compound 124, (1,4-cis)-4-((E)-4-(dimethylamino)but-2-enamido)-N-(2-fluoro-5-(((8-isopropyl-2-((1-methylpiperidin-4-yl)oxy)pyrazolo[1,5-a][1,3,5]triazin-4-yl)amino)methyl)phenyl)cyclohexane-1-carboxamide] was tested, and the inhibition at 10 µM (CDK7/CycH/MNAT1) was 94%, the IC50 (CDK7/CycH/MNAT1) was less than 300 nM and the EC50 [1] was greater than 10000 nM.
Work on `C=CC(=O)N[C@H]1CC[C@@H](C(=O)Nc2cccc(CNc3nc(OC4CCN(C)CC4)nc4c(C5CC5)cnn34)c2)CC1` [Compound 105, (1,4-cis)-4-acrylamido-N-(3-(((8-cyclopropyl-2-((1-methylpiperidin-4-yl)oxy)pyrazolo[1,5-a][1,3,5]triazin-4-yl)amino)methyl)phenyl)cyclohexane-1-carboxamide] yielded an inhibition at 10 µM (CDK7/CycH/MNAT1) of 92%, an IC50 (CDK7/CycH/MNAT1) of less than 300 nM and an EC50 [1] greater than 10000 nM.
With `C=CC(=O)N1CCC(C(=O)Nc2cccc(CNc3nc(NC4CCOCC4)nc4c(C(C)C)cnn34)c2)C1` (single isomer, unassigned) [Compound 5, 1-acryloyl-N-(3-(((8-isopropyl-2-((tetrahydro-2H-pyran-4-yl)amino)pyrazolo[1,5-a][1,3,5]triazin-4-yl)amino)methyl)phenyl)pyrrolidine-3-carboxamide] the inhibition at 10 µM (CDK7/CycH/MNAT1) was 94%, the IC50 (CDK7/CycH/MNAT1) was less than 300 nM and the EC50 [1] was 1000 to 10000 nM.
